Laboratory results reported in PubChem BioAssay (NCI).
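Protocol summary: plate cells (96-well), add compound at 5 concentrations, incubate 48 h, interpolate endpoints linearly. GI50 is the concentration that inhibits growth by half. Definition used: TGI = concentration required for complete inhibition of growth.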

Tests used:
Assay in all cases: NCI anticancer screen, dose series, 48 h
OVCAR-5 ovarian = test system: OVCAR-5 ovarian
HOP-92 NSCLC = test system: HOP-92 NSCLC
HL-60(TB) leukemia = test system: HL-60(TB) leukemia
HCT-116 colon = test system: HCT-116 colon
COLO 205 colon = test system: COLO 205 colon
SF-539 CNS = test system: SF-539 CNS
U251 CNS = test system: U251 CNS
SK-MEL-28 melanoma = test system: SK-MEL-28 melanoma
SR leukemia = test system: SR leukemia
BT-549 breast = test system: BT-549 breast

For `C=C1C(=O)O[C@H]2[C@H]1CC/C(Cn1cc(-c3cccc(Cl)c3)nn1)=C\CC[C@@]1(C)O[C@@H]21`, the GI50 (OVCAR-5 ovarian) was 1.21 µM, the TGI (OVCAR-5 ovarian) was 2.78 µM and the GI50 (HOP-92 NSCLC) was 0.257 µM. For the same compound, the TGI (HOP-92 NSCLC) was 0.842 µM, the GI50 (HL-60(TB) leukemia) was 0.332 µM and the TGI (HL-60(TB) leukemia) was 1.31 µM. The GI50 (HCT-116 colon) was 0.163 µM, the TGI (HCT-116 colon) was 0.377 µM and the GI50 (COLO 205 colon) was 0.417 µM. For the same compound, the TGI (COLO 205 colon) was 1.69 µM, the GI50 (SF-539 CNS) was 0.258 µM and the TGI (SF-539 CNS) was 0.791 µM. For the same compound, the GI50 (U251 CNS) was 1.61 µM, the TGI (U251 CNS) was 3.01 µM and the GI50 (SK-MEL-28 melanoma) was 0.351 µM. It also gave a TGI (SK-MEL-28 melanoma) of 1.27 µM, a GI50 (SR leukemia) of 0.231 µM and a TGI (SR leukemia) of 0.886 µM. It also gave a GI50 (BT-549 breast) of 0.778 µM and a TGI (BT-549 breast) of 2.1 µM.
Work on `COc1cc(/C=C/C(=O)/C=C/c2cc3ccc(Cl)cc3n(Cc3ccccc3)c2=O)ccc1O` yielded a GI50 (OVCAR-5 ovarian) of 2.65 µM, a TGI (OVCAR-5 ovarian) of 5.78 µM and a GI50 (HOP-92 NSCLC) of 2.21 µM. The TGI (HOP-92 NSCLC) was 5.44 µM, the GI50 (HCT-116 colon) was 0.768 µM and the TGI (HCT-116 colon) was 2.15 µM. It also gave a GI50 (COLO 205 colon) of 1.97 µM, a TGI (COLO 205 colon) of 6.25 µM and a GI50 (SF-539 CNS) of 1.62 µM. The TGI (SF-539 CNS) was 3.53 µM, the GI50 (U251 CNS) was 1.17 µM and the TGI (U251 CNS) was 2.55 µM. For the same compound, the GI50 (SK-MEL-28 melanoma) was 1.85 µM, the TGI (SK-MEL-28 melanoma) was 5.53 µM and the GI50 (SR leukemia) was 0.457 µM. The TGI (SR leukemia) was over 100 µM, the GI50 (BT-549 breast) was 1.69 µM and the TGI (BT-549 breast) was 4.53 µM.
For `C[C@H](CS)C(=O)N1c2ccccc2C[C@H]1C(=O)O`, the TGI (OVCAR-5 ovarian) was over 100 µM, the TGI (HL-60(TB) leukemia) was over 100 µM and the TGI (HCT-116 colon) was over 100 µM. The TGI (COLO 205 colon) was over 100 µM, the TGI (SF-539 CNS) was over 100 µM and the TGI (U251 CNS) was over 100 µM. The TGI (SK-MEL-28 melanoma) was over 100 µM, the TGI (SR leukemia) was over 100 µM and the TGI (BT-549 breast) was over 100 µM.
`Cc1ccc(Cl)cc1NC(=O)c1cc2ccccc2cc1O` showed a GI50 (OVCAR-5 ovarian) of 0.992 µM, a TGI (OVCAR-5 ovarian) of 10.7 µM and a GI50 (HOP-92 NSCLC) of 0.222 µM. For the same compound, the TGI (HOP-92 NSCLC) was 0.724 µM, the GI50 (HL-60(TB) leukemia) was 0.267 µM and the TGI (HL-60(TB) leukemia) was 0.768 µM. It also gave a GI50 (HCT-116 colon) of 0.284 µM, a TGI (HCT-116 colon) of 0.924 µM and a GI50 (COLO 205 colon) of 1.7 µM. The TGI (COLO 205 colon) was 3.48 µM, the GI50 (SF-539 CNS) was 0.356 µM and the TGI (SF-539 CNS) was 1.82 µM. The GI50 (U251 CNS) was 0.319 µM, the TGI (U251 CNS) was 4.12 µM and the GI50 (SR leukemia) was 0.217 µM. The TGI (SR leukemia) was 1.21 µM, the GI50 (BT-549 breast) was 0.294 µM and the TGI (BT-549 breast) was 1.28 µM.
`O=C(CCl)Nc1cc(Cl)c(Cl)cc1Cl` was tested, and the TGI (OVCAR-5 ovarian) was 3.72 µM, the TGI (HL-60(TB) leukemia) was 7.74 µM and the TGI (HCT-116 colon) was 2.94 µM. It also gave a TGI (COLO 205 colon) of 3.35 µM, a TGI (SF-539 CNS) of 3.04 µM and a TGI (U251 CNS) of 3.94 µM. For the same compound, the TGI (SK-MEL-28 melanoma) was 4.04 µM, the TGI (SR leukemia) was over 10 µM and the TGI (BT-549 breast) was 3.53 µM.
Work on `OCc1ccc(N2CCc3cc(F)ccc3C2)cc1Cl` yielded a GI50 (HOP-92 NSCLC) of 0.199 µM, a TGI (HOP-92 NSCLC) of 6.36 µM and a GI50 (HL-60(TB) leukemia) of 1.64 µM. For the same compound, the TGI (HL-60(TB) leukemia) was 29.1 µM, the GI50 (HCT-116 colon) was under 0.0166 µM and the TGI (HCT-116 colon) was 11.2 µM. The GI50 (COLO 205 colon) was 0.0828 µM, the TGI (COLO 205 colon) was 0.353 µM and the GI50 (SF-539 CNS) was 16.1 µM. It also gave a TGI (SF-539 CNS) of 30.2 µM, a GI50 (U251 CNS) of 0.0933 µM and a TGI (U251 CNS) of 14 µM. It also gave a GI50 (SK-MEL-28 melanoma) of 13.8 µM, a TGI (SK-MEL-28 melanoma) of 26.9 µM and a GI50 (SR leukemia) of 3.29 µM. It also gave a TGI (SR leukemia) of 24 µM, a GI50 (BT-549 breast) of 15.1 µM and a TGI (BT-549 breast) of 28.7 µM.
With `O=C1c2cccnc2C(=O)c2c1c(C(=O)NCCn1ccnc1)c1ccccn21` the GI50 (OVCAR-5 ovarian) was 4.1 µM, the TGI (OVCAR-5 ovarian) was 24.2 µM and the GI50 (HOP-92 NSCLC) was 9.28 µM. It also gave a TGI (HOP-92 NSCLC) of 31.7 µM, a GI50 (HCT-116 colon) of 3.18 µM and a TGI (HCT-116 colon) of 9.58 µM. For the same compound, the GI50 (COLO 205 colon) was 1.48 µM, the TGI (COLO 205 colon) was 3.17 µM and the GI50 (SF-539 CNS) was 2.45 µM. It also gave a TGI (SF-539 CNS) of 6.47 µM, a GI50 (U251 CNS) of 2.96 µM and a TGI (U251 CNS) of 9.18 µM. For the same compound, the GI50 (SK-MEL-28 melanoma) was 4.66 µM, the TGI (SK-MEL-28 melanoma) was 20.7 µM and the GI50 (SR leukemia) was 2.2 µM. The TGI (SR leukemia) was over 100 µM, the GI50 (BT-549 breast) was 5.14 µM and the TGI (BT-549 breast) was 16.9 µM.
